1 compound from ChEMBL document CHEMBL4680212, “Discovery of T-1101 tosylate as a first-in-class clinical candidate for Hec1/Nek2 inhibition in cancer therapy” (Eur J Med Chem, 2020) can be followed below.

Data set [1] relates to MDA-MB-231. Briefly: Antiproliferative activity against human MDA-MB-231 cells measured after 96 hrs by CellTiter 96 Aqueous One Solution Reagent based assay. Type of data set: functional, cell-based. The following applies: MDA-MB-231, 96 h.
Data set [2] is described as follows: Ratio of drug level in tumor to plasma of human MDA-MB-231 cells xenografted SCID mouse at 10 mg/kg, iv measured after 2 hrs by LC-MS/MS analysis. Conditions: tumour. It counts as ADME, organism-based. In general terms: Xenograft models place foreign cells or tissue in a host animal.
Data set [3] is described as follows: Toxicity in Sprague-Dawley rat assessed as change in clinical pathology at 60 mg/kg, po measured during 28 days. It counts as organism-based. The following applies: in vivo, time 28 day.
In data set [4] the test system is HeLa. Put plainly: Antiproliferative activity against human HeLa cells measured after 96 hrs by CellTiter 96 Aqueous One Solution Reagent based assay. Type of data set: functional, cell-based.
Data set [5] in a line: Drug level in tumor of human Huh-7 cells xenografted SCID mouse at 10 mg/kg, iv measured after 0.5 hrs by LC-MS/MS analysis. It counts as ADME, organism-based, Neoplasm. The following applies: read-out: Drug uptake.
In data set [6] the test system is HeLa. Briefly: Cell cycle arrest in human HeLa cells assessed as accumulation at sub-G1 phase at 1 uM measured after 24 hrs by propidium iodide staining based FACS analysis (reference value: 3.64%). Type of data set: functional. On the technique in general: A flow cytometer gives signals particle by particle.
Data set [7] is described as follows: Drug level in tumor of human Huh-7 cells xenografted SCID mouse at 10 mg/kg, iv measured after 24 hrs by LC-MS/MS analysis. Conditions: read-out: Drug uptake. It counts as ADME, organism-based, Neoplasm.
Data set [8] in a line: Ratio of drug level in tumor to plasma of human Huh-7 cells xenografted SCID mouse at 10 mg/kg, iv measured after 4 hrs by LC-MS/MS analysis. It counts as ADME, organism-based. Conditions: tumour.
The test system of data set [9] is COLO 205. Put plainly: Antiproliferative activity against human COLO 205 cells measured after 96 hrs by CellTiter 96 Aqueous One Solution Reagent based assay. Type of data set: functional.
The nature of data set [10]: Cmax in CD-1 mouse at 10 mg/kg, po administered as single dose via gavage by LC-MS/MS analysis. Type of data set: ADME, organism-based. On the set-up: route oral, dose 10 mg/kg. Conditions: in vivo.
Data set [11] relates to Huh-7. Put plainly: Anticancer activity against human Huh-7 cells after 24 hrs by CellTiter 96 Aqueous One Solution Reagent based assay. It counts as functional.
Data set [12] can be described thus: Drug level in tumor of human Huh-7 cells xenografted SCID mouse at 10 mg/kg, iv measured after 4 hrs by LC-MS/MS analysis. It counts as ADME, organism-based, Neoplasm. The following applies: read-out: Drug uptake.

Structures are written as SMILES.

What is called IC50 is the point on the concentration scale where inhibition reaches its midpoint. Read a low IC50 as higher potency. As usually defined, the GI50 is the concentration that inhibits growth by half. Read a high GI50 as lower sensitivity of the cells. By Cmax is commonly meant the maximum level reached in the sampled fluid or tissue.

For the compound `COCCOc1cnc(Sc2cc(C)c(-c3csc(NC(=O)c4ccncc4)n3)c(C)c2)cn1`, the half-maximal inhibitory concentration (IC50) is 14.8 nM in data set [1] and 21.1 nM in [4]. Also, the Ratio in data set [2] worked out at 24.1%; in [8], 33.2%. In addition, the Activity result in data set [3] is listed as “Non-Toxic”; in [6], 20.44%. Also, in [5], the concentration at 0.5 h is 3380 nM. Further, the concentration at 24 h in data set [7] was determined as 59.9 nM. In addition, the 50% growth inhibitory concentration (GI50) in data set [9] was 29.1 nM; in data set [11], 59.9 nM. In [10], this compound showed a peak concentration (Cmax) of 6300 nM. The concentration at 4 h in [12] was 2070 nM.
